Results published in US20090304692A1, “TRIAZINE COMPOUNDS AS PI3 KINASE AND MTOR INHIBITORS” (Wyeth, priority 2008, published 2009).
Several values for one entry are separate records, joined by “and”; a condition that tells them apart may be missing. Equal entries are not always repeated. Where two headings read alike, the source gives them in different places.

How the values were obtained:
Human mTOR (FLAG-TOR) = Human mTOR (FLAG-TOR) (Homo sapiens, UniProt P42345); test: mTOR kinase assay (DELFIA format, purified enzyme); assay type: biochemical; conditions: read-out: IC50 mTOR
Human mTOR (FLAG-TOR), sequence (P42345 1360-2549 limits assumed): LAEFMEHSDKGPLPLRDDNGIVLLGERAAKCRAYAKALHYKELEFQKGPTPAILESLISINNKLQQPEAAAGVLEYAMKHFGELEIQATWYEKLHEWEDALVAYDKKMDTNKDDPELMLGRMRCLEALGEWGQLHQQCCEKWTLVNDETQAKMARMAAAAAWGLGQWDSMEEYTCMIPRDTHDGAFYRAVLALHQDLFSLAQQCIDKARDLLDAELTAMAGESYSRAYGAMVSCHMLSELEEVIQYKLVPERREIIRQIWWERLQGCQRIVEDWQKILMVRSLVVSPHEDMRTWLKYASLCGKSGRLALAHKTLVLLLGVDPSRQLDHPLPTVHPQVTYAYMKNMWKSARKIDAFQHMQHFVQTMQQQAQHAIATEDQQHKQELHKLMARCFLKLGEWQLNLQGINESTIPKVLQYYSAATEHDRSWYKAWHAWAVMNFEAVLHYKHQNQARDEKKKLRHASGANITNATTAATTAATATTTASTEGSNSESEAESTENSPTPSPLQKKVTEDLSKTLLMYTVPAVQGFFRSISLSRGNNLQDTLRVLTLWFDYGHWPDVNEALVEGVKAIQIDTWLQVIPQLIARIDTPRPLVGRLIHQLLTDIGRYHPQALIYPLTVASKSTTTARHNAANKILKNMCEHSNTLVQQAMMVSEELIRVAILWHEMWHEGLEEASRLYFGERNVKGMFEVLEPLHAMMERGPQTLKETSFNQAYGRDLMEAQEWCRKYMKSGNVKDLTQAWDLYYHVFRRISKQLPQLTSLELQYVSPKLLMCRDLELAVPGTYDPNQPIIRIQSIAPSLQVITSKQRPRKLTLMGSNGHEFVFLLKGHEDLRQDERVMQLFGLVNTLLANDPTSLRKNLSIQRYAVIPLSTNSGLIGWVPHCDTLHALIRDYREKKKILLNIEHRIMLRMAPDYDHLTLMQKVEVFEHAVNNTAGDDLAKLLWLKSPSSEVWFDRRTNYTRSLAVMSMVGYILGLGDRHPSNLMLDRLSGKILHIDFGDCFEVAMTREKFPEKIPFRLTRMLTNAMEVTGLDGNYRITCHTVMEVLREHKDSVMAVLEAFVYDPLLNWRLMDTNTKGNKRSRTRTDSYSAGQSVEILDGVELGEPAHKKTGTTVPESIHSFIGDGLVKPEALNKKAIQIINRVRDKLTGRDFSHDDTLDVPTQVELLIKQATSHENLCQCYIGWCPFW

[1] = tested on: human breast MDA-MB-361 tumor cell line; test: In vitro cell culture growth assay (MTS), MDA-MB-361; assay type: cell-based; conditions: Homo sapiens
[2] = tested on: human prostate PC3-mm2 tumor cell line; test: In vitro cell culture growth assay (MTS), PC3-mm2; assay type: cell-based; conditions: Homo sapiens, PC3MM2, 72 h
PI3K-α = PI3K-α (Homo sapiens, UniProt P42336); test: PI3K-alpha fluorescence polarization assay; conditions: read-out: IC50 PI3Kα
PI3K-α, sequence (P42336 whole entry, species assumed): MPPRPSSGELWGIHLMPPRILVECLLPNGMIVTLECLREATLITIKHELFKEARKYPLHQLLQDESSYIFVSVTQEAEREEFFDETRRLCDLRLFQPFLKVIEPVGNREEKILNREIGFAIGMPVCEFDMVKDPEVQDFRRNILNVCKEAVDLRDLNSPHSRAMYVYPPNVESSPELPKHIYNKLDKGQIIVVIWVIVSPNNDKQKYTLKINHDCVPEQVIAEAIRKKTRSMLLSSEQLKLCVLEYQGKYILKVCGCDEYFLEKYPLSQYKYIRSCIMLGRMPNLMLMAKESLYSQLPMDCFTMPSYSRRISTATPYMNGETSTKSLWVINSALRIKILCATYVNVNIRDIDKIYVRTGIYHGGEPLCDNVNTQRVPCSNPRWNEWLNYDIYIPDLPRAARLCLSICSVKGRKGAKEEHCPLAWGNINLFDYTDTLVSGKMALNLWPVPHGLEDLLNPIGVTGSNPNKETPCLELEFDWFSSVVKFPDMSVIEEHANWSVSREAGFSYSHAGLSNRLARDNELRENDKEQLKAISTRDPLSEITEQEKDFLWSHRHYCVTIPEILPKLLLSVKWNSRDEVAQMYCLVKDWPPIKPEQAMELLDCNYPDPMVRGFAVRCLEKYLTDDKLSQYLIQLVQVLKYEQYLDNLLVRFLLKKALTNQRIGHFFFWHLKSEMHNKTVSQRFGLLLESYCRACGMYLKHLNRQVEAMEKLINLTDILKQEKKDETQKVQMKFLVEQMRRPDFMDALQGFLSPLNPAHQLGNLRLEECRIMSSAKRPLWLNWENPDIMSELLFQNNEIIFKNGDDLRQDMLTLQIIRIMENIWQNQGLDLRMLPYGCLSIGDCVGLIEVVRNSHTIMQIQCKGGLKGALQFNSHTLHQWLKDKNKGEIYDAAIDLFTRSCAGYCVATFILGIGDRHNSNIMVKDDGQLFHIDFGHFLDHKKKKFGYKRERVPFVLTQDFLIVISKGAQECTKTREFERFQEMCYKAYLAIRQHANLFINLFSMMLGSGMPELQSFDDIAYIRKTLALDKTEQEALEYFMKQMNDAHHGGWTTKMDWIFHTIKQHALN
PI3K-α, sequence (P27986 whole entry partner, species assumed): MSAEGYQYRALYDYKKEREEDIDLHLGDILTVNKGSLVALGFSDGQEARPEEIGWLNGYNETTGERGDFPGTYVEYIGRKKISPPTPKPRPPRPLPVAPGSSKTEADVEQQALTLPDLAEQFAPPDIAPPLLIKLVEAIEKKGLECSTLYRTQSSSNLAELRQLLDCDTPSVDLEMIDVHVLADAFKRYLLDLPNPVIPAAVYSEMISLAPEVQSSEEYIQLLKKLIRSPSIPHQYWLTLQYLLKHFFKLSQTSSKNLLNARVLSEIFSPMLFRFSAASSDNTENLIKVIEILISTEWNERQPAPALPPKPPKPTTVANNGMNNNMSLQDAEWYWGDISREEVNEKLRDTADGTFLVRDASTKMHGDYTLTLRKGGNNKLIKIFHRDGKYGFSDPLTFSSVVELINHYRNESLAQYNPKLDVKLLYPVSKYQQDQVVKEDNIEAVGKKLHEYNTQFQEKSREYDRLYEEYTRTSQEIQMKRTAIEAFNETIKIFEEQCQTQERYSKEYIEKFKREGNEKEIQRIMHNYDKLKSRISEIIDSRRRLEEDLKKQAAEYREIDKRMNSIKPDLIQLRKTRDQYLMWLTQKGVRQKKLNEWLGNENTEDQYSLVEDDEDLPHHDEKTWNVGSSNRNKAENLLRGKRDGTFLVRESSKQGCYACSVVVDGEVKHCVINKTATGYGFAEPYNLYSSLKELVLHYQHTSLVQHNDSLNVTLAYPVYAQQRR

PI3K-γ = PI3K-γ (Homo sapiens, UniProt P48736); test: PI3K-gamma fluorescence polarization assay; conditions: read-out: IC50 PI3Kγ
PI3K-γ, sequence (P48736 whole entry, species assumed): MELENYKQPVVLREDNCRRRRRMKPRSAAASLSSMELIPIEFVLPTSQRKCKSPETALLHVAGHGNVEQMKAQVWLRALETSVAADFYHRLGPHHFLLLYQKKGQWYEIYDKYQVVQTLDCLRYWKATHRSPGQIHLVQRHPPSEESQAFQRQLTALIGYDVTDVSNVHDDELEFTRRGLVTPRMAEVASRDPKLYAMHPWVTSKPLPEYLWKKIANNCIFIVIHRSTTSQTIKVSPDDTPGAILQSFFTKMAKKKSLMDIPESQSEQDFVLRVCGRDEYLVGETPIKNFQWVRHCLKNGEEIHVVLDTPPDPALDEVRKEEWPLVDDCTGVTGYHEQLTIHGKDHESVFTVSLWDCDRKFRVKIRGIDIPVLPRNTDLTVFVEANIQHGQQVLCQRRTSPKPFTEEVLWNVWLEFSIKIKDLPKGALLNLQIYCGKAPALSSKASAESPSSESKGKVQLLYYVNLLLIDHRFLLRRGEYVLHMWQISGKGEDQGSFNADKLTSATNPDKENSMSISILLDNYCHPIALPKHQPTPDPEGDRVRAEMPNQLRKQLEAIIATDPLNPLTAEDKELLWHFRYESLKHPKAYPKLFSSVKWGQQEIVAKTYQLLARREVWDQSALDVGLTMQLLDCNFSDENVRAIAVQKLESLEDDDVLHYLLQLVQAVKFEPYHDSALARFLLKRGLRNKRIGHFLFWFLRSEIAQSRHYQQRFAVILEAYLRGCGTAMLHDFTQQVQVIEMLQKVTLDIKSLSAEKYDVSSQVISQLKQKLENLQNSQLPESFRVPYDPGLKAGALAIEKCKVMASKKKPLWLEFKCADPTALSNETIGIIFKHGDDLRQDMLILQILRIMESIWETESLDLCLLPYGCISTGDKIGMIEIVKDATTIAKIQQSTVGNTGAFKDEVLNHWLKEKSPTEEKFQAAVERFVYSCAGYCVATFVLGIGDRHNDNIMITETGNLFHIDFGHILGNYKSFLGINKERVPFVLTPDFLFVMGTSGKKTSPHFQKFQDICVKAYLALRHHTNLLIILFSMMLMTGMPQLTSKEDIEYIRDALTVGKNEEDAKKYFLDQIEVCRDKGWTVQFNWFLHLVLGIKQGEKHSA

[3] = 72 h, MTS cell growth assay, three days after drug treatment, MDA-MB-361 cells, read-out: IC50 MDA-MB-361
[4] = MTS cell growth assay, three days after drug treatment, PC3-mm2 cells, read-out: IC50 PC3-mm2
[5] = MDA-MB-361, 72 h, MTS cell growth assay, three days after drug treatment, read-out: IC50 MDA-MB-361
[6] = MTS cell growth assay, three days after drug treatment, read-out: IC50 PC3-mm2

SMILES	IC50 (Human mTOR (FLAG-TOR))	IC50 [1, 3] [nM]	IC50 [2, 4] [nM]	IC50 (PI3K-α) [nM]	IC50 (PI3K-γ) [nM]	IC50 [1, 5] [nM]	IC50 [2, 6] [nM]	IC50 (PI3K-α; listed as 736) [nM]	IC50 (PI3K-γ; listed as 736) [nM]	IC50 ([1]; MDA-MB-361, 72 h, read-out: IC50 MDA-MB-361, MTS cell growth assay, three days after drug treatment) [nM]	IC50 ([2]; read-out: IC50 PC3-mm2, MTS cell growth assay, three days after drug treatment) [nM]	IC50 ([1]; MDA-MB-361, 72 h, MTS cell growth assay, three days after drug treatment, MDA-MB-361 cells, read-out: IC50 MDA-MB-361) [nM]
O=C(Nc1ccccc1)Nc1ccc(-c2nc(N3CCOCC3)nc(N3C4CCC3CC(O)C4)n2)cc1 (stereo not shown) [Example 685, 1-{4-[4-(3-hydroxy-8-azabicyclo[3.2.1]oct-8-yl)-6-morpholin-4-yl-1,3,5-triazin-2-yl]phenyl}-3-phenylurea]	0.825 nM	> 10000	> 10000	7	26.5	–	–	–	–	–	–	–
O=C(Nc1ccc(C(=O)NCCN2CCCC2)cc1)Nc1ccc(-c2nc(N3CCOCC3)nc(N3C4CCC3COC4)n2)cc1 [Example 758, 4-[({4-[4-morpholin-4-yl-6-(3-oxa-8-azabicyclo[3.2.1]oct-8-yl)-1,3,5-triazin-2-yl]phenyl}carbamoyl)amino]-N-(2-pyrrolidin-1-ylethyl)benzamide]	0.17 nM	3	14	2	16	–	–	–	–	–	–	–
O=C(Nc1ccncc1)Nc1ccc(-c2nc(C3=CCOCC3)nc(N3CCOCC3)n2)cc1 [Example 100, 1-{4-[4-(3,6-Dihydro-2H-pyran-4-yl)-6-morpholin-4-yl-[1,3,5]triazin-2-yl]-phenyl}-3-pyridin-4-yl-urea]	3.5 nM	–	–	5	38	56	56	–	–	–	–	–
COC(=O)c1ccc(NC(=O)Nc2ccc(-c3nc(N4CCOCC4)nc(N4C5COCC4COC5)n3)cc2)cc1 [Example 770, methyl 4-[({4-[4-(3,7-dioxa-9-azabicyclo[3.3.1]non-9-yl)-6-morpholin-4-yl-1,3,5-triazin-2-yl]phenyl}carbamoyl)amino]benzoate]	0.27 nM	40	25	30.5	99	–	–	–	–	–	–	–
O=C(Nc1ccncc1)Nc1ccc(-c2nc(CCCO)nc(N3CCOCC3)n2)cc1 [Example 279, 1-{4-[4-(3-hydroxypropyl)-6-morpholin-4-yl-1,3,5-triazin-2-yl]phenyl}-3-pyridin-4-ylurea]	35 nM and 3.6 nM	–	247	10	70	176	247	9.5	53.5	–	–	–
CCCc1nc(-c2ccc(NC(=O)Nc3ccc(N4CCN(C)CC4)cc3)cc2)nc(N2CCOCC2)n1 [Example 294, 1-[4-(4-methylpiperazin-1-yl)phenyl]-3-[4-(4-morpholin-4-yl-6-propyl-1,3,5-triazin-2-yl)phenyl]urea]	18 nM	–	–	9	26	69	154	–	–	–	–	–
O=C(Nc1ccc(C(=O)NCCN2CCCCC2)cc1)Nc1ccc(-c2nc(C3CCOCC3)nc(N3CCOCC3)n2)cc1 [Example 514, 4-[({4-[4-morpholin-4-yl-6-(tetrahydro-2H-pyran-4-yl)-1,3,5-triazin-2-yl]phenyl}carbamoyl)amino]-N-(2-piperidin-1-ylethyl)benzamide]	0.17 nM	< 3.2	12	1.6	15	–	–	–	–	–	–	–
CCc1nc(-c2ccc(NC(=O)Nc3ccc(C(=O)N4CCC(c5ccccc5)CC4)cc3)cc2)nc(N2CCOCC2)n1 [Example 320, 1-[4-(4-ethyl-6-morpholin-4-yl-1,3,5-triazin-2-yl)phenyl]-3-{4-[(4-phenylpiperidin-1-yl)carbonyl]phenyl}urea]	12.9 nM	–	–	3.3	25	32.3	73.7	–	–	–	–	–
O=C(Nc1ccccc1)Nc1ccc(-c2nc(NC3CNC3)nc(N3CCOCC3)n2)cc1 [Example 17, 1-{4-[4-(azetidin-3-ylamino)-6-morpholin-4-yl-1,3,5-triazin-2-yl]phenyl}-3-phenylurea]	14 nM	–	–	8	90	501	994	–	–	–	–	–
O=C(Nc1ccncc1)Nc1ccc(-c2nc(N3CCOCC3)nc(N3CCOCC3)n2)cc1 [Example 1, 1-[4-(4,6-dimorpholin-4-yl-1,3,5-triazin-2-yl)phenyl]-3-pyridin-4-ylurea]	1.3 nM	–	–	3	29	–	–	–	–	45	43	–
CN(C)CCN(C)C(=O)c1ccc(NC(=O)Nc2ccc(-c3nc(N4CCCCC4)nc(N4CCOCC4)n3)cc2)cc1 [Example 605, N-[2-(dimethylamino)ethyl]-N-methyl-4-({[4-(4-morpholin-4-yl-6-piperidin-1-yl-1,3,5-triazin-2-yl)phenyl]carbamoyl}amino)benzamide]	3 nM	7	92	2.2	46	–	–	–	–	–	–	–
CN(C)CCN(C)C(=O)c1ccc(NC(=O)Nc2ccc(-c3nc(N4CCOCC4)nc(N4CCN(C(=O)N(C)C)CC4)n3)cc2)cc1 [Example 648, 4-[4-(4-{[(4-{[2-(dimethylamino)ethyl](methyl)carbamoyl}phenyl)carbamoyl]amino}phenyl)-6-morpholin-4-yl-1,3,5-triazin-2-yl]-N,N-dimethylpiperazine-1-carboxamide]	3 nM	12	34	2	27	–	–	–	–	–	–	–
Cc1ccc(-c2nc(-c3ccc(NC(=O)Nc4ccc(C(=O)NCCN(C)C)cc4)cc3)nc(N3CCOCC3)n2)cc1 [Example 542, N-[2-(dimethylamino)ethyl]-4-[({4-[4-(4-methylphenyl)-6-morpholin-4-yl-1,3,5-triazin-2-yl]phenyl}carbamoyl)amino]benzamide]	21.5 nM	281	569	8	67	–	–	–	–	–	–	–
O=C(Nc1ccc(C(=O)N2CCC(N3CCCCC3)CC2)cc1)Nc1ccc(-c2nc(N3CCOCC3)nc(N3C4COCC3COC4)n2)cc1 [Example 777, 1-[4-(1,4′-bipiperidin-1′-ylcarbonyl)phenyl]-3-{4-[4-(3,7-dioxa-9-azabicyclo[3.3.1]non-9-yl)-6-morpholin-4-yl-1,3,5-triazin-2-yl]phenyl}urea]	0.265 nM	–	4	4	39	–	–	–	–	–	–	2
CCN1CCN(C(=O)c2ccc(NC(=O)Nc3ccc(-c4nc(-c5cccs5)nc(N5CCOCC5)n4)cc3)cc2)CC1 [Example 575, 1-{4-[(4-ethylpiperazin-1-yl)carbonyl]phenyl}-3-{4-[4-morpholin-4-yl-6-(2-thienyl)-1,3,5-triazin-2-yl]phenyl}urea]	15 nM	15	242	3	19	–	–	–	–	–	–	–
COCCNC(=O)c1ccc(NC(=O)Nc2ccc(-c3nc(-c4cccs4)nc(N4CCOCC4)n3)cc2)cc1 [Example 561, N-(2-methoxyethyl)-4-[({4-[4-morpholin-4-yl-6-(2-thienyl)-1,3,5-triazin-2-yl]phenyl}carbamoyl)amino]benzamide]	6 nM	66	218	11.5	59	–	–	–	–	–	–	–
Cc1nc(-c2ccc(NC(=O)Nc3ccncc3)cc2)nc(N2CCOCC2)n1 [Example 161, 1-[4-(4-methyl-6-morpholin-4-yl-1,3,5-triazin-2-yl)phenyl]-3-pyridin-4-ylurea]	30 nM	–	–	39	155	328	675	–	–	–	–	–
